We go through eleven molecules from ChEMBL document CHEMBL1201862, “PubChem BioAssay data set” (2004).

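Test compounds were applied to cells in 96-well plates for 48 hours at 5 doses. At the GI50, growth is halved.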 Active and inactive are the calls of the source. Cut-off read from the data, not from the text of the source: active = GI50 up to about 1.1 µM and inactive = higher.

What all share (assay): growth of human tumour cells (NCI), 48 h
Experiment [1] relates to COLO 205.
Experiment [2] deals with KM12.
Experiment [3] deals with LOX IMVI.
In experiment [4] the test system is MCF7.
In experiment [5] the test system is MDA-MB-231.
The test system of experiment [6] is Malme-3M.
Experiment [7] has as its system NCI-H23.
Experiment [8] has as its system NCI-H460.
The subject of experiment [9] is OVCAR-4.
In experiment [10] the test system is OVCAR-5.
Experiment [11] deals with RPMI-8226.
The test system of experiment [12] is RXF 393.
The test system of experiment [13] is SK-MEL-2.
Experiment [14] concerns SN12C.
Experiment [15] has as its system SNB-19.
For experiment [16], the system named is SR.
The subject of experiment [17] is U-251.
Experiment [18] has as its system UACC-62.
The test system of experiment [19] is HOP-62.
In experiment [20] the test system is SF-539.

For the molecule `CN1CCN(C(=S)N(C(=O)c2ccc(Cl)cc2)c2ccccc2)CC1`, the GI50 in [1], in experiment [2], in experiment [3], in experiment [4], in experiment [5] and in [6] was > 100 µM (inactive) throughout. Moreover, the GI50 in experiment [7], in [8], in [9], in [10], in experiment [11] and in experiment [12] was > 100 µM (inactive) each time. For the same molecule, the GI50 in [13], in experiment [14], in experiment [15], in [16], in [17] and in experiment [18] was > 100 µM (inactive) throughout.
With `COc1cc(S(=O)(=O)Nc2nc(-c3ccc(N4C(=O)CSC4c4cccs4)cc3)cs2)ccc1Cl` (stereo unspecified), the GI50 in experiment [1] is > 100 µM (inactive); in experiment [19] it was > 100 µM (inactive); in [2], 75.5 µM (inactive); in experiment [3] it was 21.8 µM (inactive); in experiment [4], 43.5 µM (inactive); in experiment [5], > 100 µM (inactive). The GI50 in [6] is > 100 µM (inactive); in experiment [7] it was 33.2 µM (inactive); in [8] it was > 100 µM (inactive); in experiment [9] it was 31.3 µM (inactive); in experiment [10], > 100 µM (inactive); in [12] it was 24.1 µM (inactive). Further, the GI50 is 49.7 µM (inactive) in experiment [20]; 57.5 µM (inactive) in experiment [13]; 25.6 µM (inactive) in experiment [14]; > 100 µM (inactive) in experiment [15]; 28.9 µM (inactive) in [16]; > 100 µM (inactive) in [17]. In experiment [18], the GI50 was 83.6 µM (inactive).
Consider `C1=C\SS/C=C\SS/C=C\SS/C=C\SS/1`, for which the GI50 is > 100 µM (inactive) in experiment [1]; 69.7 µM (inactive) in experiment [19]; > 100 µM (inactive) in [2]; 42.4 µM (inactive) in [3]; 46.7 µM (inactive) in [4]; > 100 µM (inactive) in [5]. For the same molecule, the GI50 in [6] was 41.7 µM (inactive); in experiment [7], > 100 µM (inactive); in experiment [8] it was 22.9 µM (inactive); in [9], > 100 µM (inactive); in experiment [10] it was > 100 µM (inactive); in experiment [11], 58.7 µM (inactive). The GI50 is 80.9 µM (inactive) in [12]; > 100 µM (inactive) in experiment [13]; > 100 µM (inactive) in [14]; 67.5 µM (inactive) in [15]; 54.1 µM (inactive) in experiment [16]; 81.8 µM (inactive) in experiment [17]. The GI50 in experiment [18] is > 100 µM (inactive).
Consider `CC/C=C/c1cc2c(cc1O)CCC1C2CC[C@@]2(C)C1CC[C@@H]2O` (stereo partly specified), for which the GI50 is 14 µM (inactive) in experiment [1]; 4.32 µM (inactive) in experiment [2]; 0.904 µM (active) in experiment [3]; 1.08 µM (active) in experiment [4]; 3.53 µM (inactive) in [5]; 0.524 µM (active) in experiment [6]. Further, the GI50 in experiment [7] is 3.33 µM (inactive); in experiment [8], 0.82 µM (active); in experiment [9] it was 19.9 µM (inactive); in experiment [10], 12.5 µM (inactive); in experiment [11], 1.89 µM (inactive); in experiment [12], 1.08 µM (active). The GI50 is 1.21 µM (inactive) in experiment [13], 2.6 µM (inactive) in [15], 0.34 µM (active) in [16] and 1.7 µM (inactive) in experiment [17].
Turning to `COc1ccc(N)c(C(O)CCNC(C)=O)c1` (stereo unspecified), the GI50 in [1], in experiment [2], in [3], in experiment [4], in experiment [5] and in experiment [7] was > 100 µM (inactive) throughout. Besides, the GI50 in experiment [8], in experiment [9], in experiment [10], in experiment [11], in [12] and in experiment [20] was > 100 µM (inactive) throughout. In addition, the GI50 in experiment [13], in experiment [14], in experiment [15], in [16], in experiment [17] and in experiment [18] was > 100 µM (inactive) in each case.
In the case of `c1ccc(C[n+]2cccc(-c3cc4ccccc4[nH]3)c2)cc1`, the GI50 is 15 µM (inactive) in experiment [1]; 31.8 µM (inactive) in [19]; 16.6 µM (inactive) in experiment [2]; 19.1 µM (inactive) in experiment [3]; 27.6 µM (inactive) in [4]; 37.2 µM (inactive) in experiment [5]. For the same molecule, the GI50 in experiment [6] is 14.6 µM (inactive); in experiment [7], 16.4 µM (inactive); in [8], 25.3 µM (inactive); in [9] it was 40.2 µM (inactive); in [10], 42.7 µM (inactive); in [11], 17.6 µM (inactive). The GI50 is > 100 µM (inactive) in experiment [12]; 16.6 µM (inactive) in experiment [13]; 15.4 µM (inactive) in experiment [14]; 26.5 µM (inactive) in [15]; 32.1 µM (inactive) in experiment [16]; 34.5 µM (inactive) in [17]. Also, in [18], the GI50 was 15.7 µM (inactive).
For `O=c1c2ccccc2nc(N/N=C/c2ccc(Cl)cc2)n1-c1ccccc1`, the GI50 is > 100 µM (inactive) in experiment [1]; 38.1 µM (inactive) in experiment [19]; > 100 µM (inactive) in experiment [3]; > 100 µM (inactive) in experiment [4]; 93.3 µM (inactive) in [5]; > 100 µM (inactive) in experiment [6]. The GI50 in experiment [7] is > 100 µM (inactive); in experiment [8], 75 µM (inactive); in experiment [9], 21.1 µM (inactive); in [10], > 100 µM (inactive); in [12] it was 87.1 µM (inactive); in experiment [20] it was 97.3 µM (inactive). For the same molecule, the GI50 in experiment [13] is 17.5 µM (inactive); in experiment [14], > 100 µM (inactive); in experiment [15], 36.5 µM (inactive); in experiment [16], > 100 µM (inactive); in experiment [17], 46.6 µM (inactive); in experiment [18] it was > 100 µM (inactive).
For the molecule `COc1cc(C(C)(C)C)c(OC(=O)/C=C/C(=O)O/C=C/[N+](=O)[O-])c(C(C)(C)C)c1`, the GI50 was 42.9 µM (inactive) in experiment [1]; > 100 µM (inactive) in experiment [19]; 16.8 µM (inactive) in experiment [2]; 24.2 µM (inactive) in [3]; 13.5 µM (inactive) in [4]; 33.9 µM (inactive) in experiment [5]. For the same molecule, the GI50 is 19.4 µM (inactive) in [7]; 66.4 µM (inactive) in [8]; > 100 µM (inactive) in experiment [10]; > 100 µM (inactive) in experiment [11]; 27.6 µM (inactive) in experiment [12]; 34.4 µM (inactive) in [20]. Further, the GI50 in experiment [14] is 41.3 µM (inactive); in [16] it was 63.8 µM (inactive); in experiment [17], 47.1 µM (inactive); in experiment [18] it was 33.2 µM (inactive).
As for `Cc1ccc(-n2cc(-c3ccc(Cl)cc3)c3c2N=CN2N=C(c4cccs4)NC32)cc1` (stereo unspecified), the GI50 is 6.71 µM (inactive) in [1]; 15.7 µM (inactive) in experiment [19]; 15.7 µM (inactive) in experiment [3]; 32.5 µM (inactive) in [4]; 4.52 µM (inactive) in experiment [5]; 38.4 µM (inactive) in [6]. Further, the GI50 in experiment [7] is 15.3 µM (inactive); in [8], 5.31 µM (inactive); in experiment [9] it was 2.21 µM (inactive); in experiment [10], 11.1 µM (inactive); in experiment [12], 12.4 µM (inactive); in experiment [20], 16.2 µM (inactive). The GI50 is 13.1 µM (inactive) in experiment [13]; 10.1 µM (inactive) in experiment [14]; 17.9 µM (inactive) in [15]; 7.64 µM (inactive) in experiment [16]; 4.81 µM (inactive) in experiment [17]; 23.2 µM (inactive) in experiment [18].
As to `O=C(CCc1cc(O)cc(O)c1)NCCc1ccc(O)c(O)c1`, the GI50 in [1], in experiment [19], in experiment [2], in experiment [3], in experiment [4] and in experiment [5] was > 100 µM (inactive) throughout. For the same molecule, the GI50 in experiment [7], in experiment [8], in [10], in experiment [11], in experiment [12] and in experiment [20] was > 100 µM (inactive) in each case. Further, the GI50 in experiment [13], in experiment [14], in experiment [15], in [16], in experiment [17] and in experiment [18] was > 100 µM (inactive) each time.
On to `O=C1NC(c2ccc3ccccc3c2)Nc2ccccc21` (stereo unspecified), for which the GI50 in experiment [1] is 26.3 µM (inactive); in experiment [19], 41 µM (inactive); in [2], 21.1 µM (inactive); in experiment [3], 58.7 µM (inactive); in [4] it was 46.1 µM (inactive); in experiment [5], > 100 µM (inactive). The GI50 in experiment [7] is 24.5 µM (inactive); in experiment [8], 25.3 µM (inactive); in experiment [9], 58.5 µM (inactive); in experiment [11], 29.9 µM (inactive); in experiment [12], 51.9 µM (inactive); in [20], 20.7 µM (inactive). Moreover, the GI50 in experiment [13] was 35.9 µM (inactive); in experiment [15] it was 51.8 µM (inactive); in [16] it was 5.83 µM (inactive); in [17], > 100 µM (inactive); in experiment [18] it was 21.9 µM (inactive).
